Test results: ChEMBL document CHEMBL6096717, “Novel 3-Pyrrolidineindole Derivatives as Serotonergic Psychedelic Agents for Treating Psychosis and Mental Illnesses Such as Depression and Post-Traumatic Stress Disorder” (ACS Med Chem Lett, 2025)

Target: 5-hydroxytryptamine receptor 2A (Homo sapiens, UniProt P28223)
Assay: Displacement of [3H]-ketanserin from human 5HT2A receptor incubated for 90 mins by Microbeta2 scintillation counting analysis

Sequence of 5-hydroxytryptamine receptor 2A (P28223 whole entry): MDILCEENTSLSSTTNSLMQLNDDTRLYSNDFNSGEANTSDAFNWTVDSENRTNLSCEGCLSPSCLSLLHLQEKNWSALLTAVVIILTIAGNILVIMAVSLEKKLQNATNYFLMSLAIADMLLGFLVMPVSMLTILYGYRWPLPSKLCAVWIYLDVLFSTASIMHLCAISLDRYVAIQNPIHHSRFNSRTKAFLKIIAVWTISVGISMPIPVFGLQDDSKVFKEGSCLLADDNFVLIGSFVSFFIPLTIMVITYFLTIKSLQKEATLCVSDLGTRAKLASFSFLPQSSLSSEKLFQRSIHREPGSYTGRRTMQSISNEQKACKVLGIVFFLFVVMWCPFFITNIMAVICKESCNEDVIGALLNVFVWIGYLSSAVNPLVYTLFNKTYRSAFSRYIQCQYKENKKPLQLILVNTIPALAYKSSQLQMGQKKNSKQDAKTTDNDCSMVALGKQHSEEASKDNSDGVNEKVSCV

Question: Which IC50 does the source give for [2H]C([2H])(c1c[nH]c2cccc(O)c12)[C@H]1CCCN1C([2H])([2H])[2H] here?
Answer: < 500 nM

Question: Which IC50 does the source give for [2H]C([2H])([2H])N1CCC[C@@H]1Cc1c[nH]c2cccc(F)c12 here?
Answer: < 500 nM

Question: [2H]C([2H])([2H])N1CCC[C@@H]1Cc1c[nH]c2cccc(O)c12 was tested. Which IC50 did it give?
Answer: < 500 nM

Question: With [2H]C([2H])(c1c[nH]c2cccc(Cl)c12)[C@H]1CCCN1C([2H])([2H])[2H] as the molecule, how does the IC50 read?
Answer: < 500 nM

Question: [2H]C([2H])(c1c[nH]c2cccc(OC(=O)CCCCCCC/C=C\C/C=C\CCCC)c12)[C@H]1CCCN1C([2H])([2H])[2H] was tested. Which IC50 did it give?
Answer: < 500 nM

Question: With [2H]C([2H])([2H])N1CCC[C@@H]1Cc1c[nH]c2cccc(OC(=O)CCCCCCC/C=C\C/C=C\CCCC)c12 as the molecule, how does the IC50 read?
Answer: < 500 nM
